# Experimental data from patent US20230192878A1, “METHODS, THERAPIES AND USES FOR TREATING CANCER” (PFIZER INC., priority 2020, published 2023).
# Key:
# Raji = test: Cell surface BCMA expression after GSI, time course and washout, lymphoma cells; assay type: cell-based
# Protocol: Lymphoma cells (Raji) were seeded in a 6-well plate at 800,000 cells/2 ml/well with GSI diluted at 1 μM in RPMI medium (with 0.1% DMSO). Cells were collected to evaluate cell surface BCMA expression at baseline, and then at 3 hours, 6 hours and 24 hours after addition of the GSI. After 24 hours of incubation with the GSI, cells were washed twice in PBS and re-plated in fresh 6-well plates. […] At the indicated time points, samples were stained with a ZombieNIR Viability dye (Biolegend) for 20 minutes at room temperature at 1 in 500 dilution in PBS, washed with PBS+2% FBS and further stained with anti-BCMA PE-labelled antibody diluted in PBS+2% FBS for 30 minutes at 4° C. Samples were acquired on BD Flow Cytometer and analyzed using FlowJo software. Dead cells were removed from the analysis by gating on ZombieNIR negative population. BCMA mean fluorescence intensity (MFI) was plotted as a histogram.
# [1] = system: advanced multiple myeloma; test: First in human Phase 1 clinical study: patient response per IMWG; assay type: in vivo
# Excerpt: This Example illustrates an ongoing Phase 1 open-label, multicenter clinical study of PF-06863135 (BCMAxCD3 bispecific) as monotherapy and in combination with sasanlimab, lenalidomide or pomalidomide, in adult patients with advanced multiple myeloma who have relapsed from or are refractory to standard therapy. The study has been registered on ClinicalTrials.gov with identifier NCT03269136 and was first posted August 2017. Study results for Part 1 of the trial and additional arms for the study are described in this Example.
# Part 1 of the Study is the […] single agent dose escalation arm at the dose levels of 0.1, 0.3, 1, 3, 10, 30, and 50 μg/kg Q1W by intravenous (IV) administration, and at the dose levels of 80, 130, 215, 360, 600 and 1000 μg/kg Q1W by subcutaneous (SC) administration. Upon reaching maximum tolerated dose (MTD)/maximum administered dose (MAD), patients can be treated at a dose level selected from the foregoing dose levels described in this paragraph, and below the MTD/MAD fora Q2W administration, both IV and SC, to further support the recommended phase 2 dose (RP2D) decision. For the study, dose limiting toxicity observation period is set at 21 days for Q1W dosing and 28 days for Q2W dosing. The treatment cycle, aka cycle, for Q1W dosing would be 3 weeks, and for Q2W dosing would be four weeks.
# Clinical Outcome of Part 1 of the Study. As of 15 Apr. 2020, a total of 23 patients were enrolled in Part 1 of the study and had been treated with PF-06863135 administered intravenously (IV) at 0.1 (N=2), 0.3 (N=3), 1 (N=2), 3 (N=3), 10 (N=2), 30 (N=5), and 50 (N=6) μg/kg. As of Aug. 21, 2020, a total of 30 patients were enrolled in Part 1 of the study and had been treated with PF-06863135 administered subcutaneously (SC) at 80 (N=6), 130 (N=4), 215 (N=4), 360 (N=4), 600 (N=6) and 1000 (N=6) μg/kg. Safety and efficacy data were available for in 23 IV and 30 SC treated patients per IMWG (International Myeloma Working Group) criteria.
# Part 1.1 of the Study is an alternative maintenance dose escalation arm for single agent PF-06863135. If excessive toxicity occurs or the maximum tolerated dose (MTD)/maximum administered dose (MAD) is reached at a dose level that is earlier than desired in Part 1 of the study described above, a priming dose will be administered one week prior to the day 1 cycle 1 administration of the dose (maintenance dose) at this dose level and for all subsequent dose levels in the dose escalation that may be initiated for Part 1.1. The priming dosing will be at a lower dose level than the maintenance dose.
# Raji-luc = test: BCMAxCD3 bispecific mediated cell killing of lymphoma cells with human T cells, with or without GSI; assay type: cell-based; conditions: 60 hours, with or without 1 μM GSI, ± SD
# Protocol: CD3^+ T cells from PBMCs (Stem Cell Technologies) were negatively selected using EasySep Human T cell enrichment kit (Stem Cell Technologies). 10,000 target lymphoma cells expressing luciferase (Raji-luc) were treated with 1 μM GSI. After 24 hours, cells were seeded with 50,000 CD3^+ pan T cells in a clear 96-well V-bottom plate. Cells were further treated with a range of BCMAxCD3 bispecific concentrations with or without 1 μM GSI. 60 hours after treatment, luciferase activity in treated cells was analyzed using NeoLite reagent kit (Perkin Elmer) and acquired on VictorX multimode plate reader (Perkin Elmer). Cell viability was calculated by dividing luciferase activity of treated cells over luciferase activity of untreated control (no BCMAxCD3 bispecific antibody added).
# [2] = 600 μg/kg priming, 1000 μg/kg Q1W SC, N = 7
# [3] = 600 μg/kg priming, 1000 μg/kg Q2W SC, N = 13
compound,measurement,setting,value
"CCC[C@H](N[C@H]1CCc2cc(F)cc(F)c2C1)C(=O)Nc1cn(C(C)(C)CNCC(C)(C)C)cn1 [GSI, nirogacestat]",BCMA (-PE) MFI,"Raji; GSI 1 μM for 24 h, 3 h post wash",1619
same,BCMA (-PE) MFI,"Raji; GSI 1 μM for 24 h, 5 h post wash",1822
same,BCMA (-PE) MFI,"Raji; GSI 1 μM for 24 h, 24 h post wash",795
same,BCMA (-PE) MFI,"Raji; GSI 1 μM, 3 h after GSI",699
same,BCMA (-PE) MFI,"Raji; GSI 1 μM, 6 h after GSI",735
same,BCMA (-PE) MFI,"Raji; GSI 1 μM, 24 h after GSI",1506
PF-06863135: heterodimeric humanized full-length bispecific antibody with one BCMA binding arm and one CD3 binding arm,Patients who achieved a complete response,[1]; 50 μg/kg IV,1 patient
same,Patient Response: PR (patients),"[1]; 215 μg/kg SC, N = 4",1
same,Patient Response: SD (patients),"[1]; 215 μg/kg SC, N = 4",1
same,Patient Response: sCR (patients),"[1]; 215 μg/kg SC, N = 4",2
same,Patient Response: PD (patients),"[1]; 360 μg/kg SC, N = 4",1
same,Patient Response: VGPR (patients),"[1]; 360 μg/kg SC, N = 4",2
same,Patient Response: sCR (patients),"[1]; 360 μg/kg SC, N = 4",1
same,Patient Response: PD (patients),"[1]; 600 μg/kg SC, N = 6",1
same,Patient Response: SD (patients),"[1]; 600 μg/kg SC, N = 6",1
same,Patient Response: VGPR (patients),"[1]; 600 μg/kg SC, N = 6",2
same,Patient Response: sCR (patients),"[1]; 600 μg/kg SC, N = 6",2
same,Patient Response: CR (patients),[1]; [2],2
same,Patient Response: PR (patients),[1]; [2],1
same,Patient Response: VGPR (patients),[1]; [2],1
same,Patient Response: PD (patients),[1]; [3],3
same,Patient Response: PR (patients),[1]; [3],3
same,Patient Response: SD (patients),[1]; [3],1
same,Patient Response: VGPR (patients),[1]; [3],4
same,Patient Response: CR (patients),"[1]; 1000 μg/kg SC, N = 6",1
same,Patient Response: PD (patients),"[1]; 1000 μg/kg SC, N = 6",1
same,Patient Response: PR (patients),"[1]; 1000 μg/kg SC, N = 6",1
same,Patient Response: VGPR (patients),"[1]; 1000 μg/kg SC, N = 6",3
same,Subjects who achieved best response of stable disease,[1]; IV cohorts (0.3-50 μg/kg),Ten
same,Patients who achieved a minimal response,"[1]; IV cohorts, at 3 μg/kg and 50 μg/kg IV",2 patients
same,Clinical efficacy,[1]; highest dose levels of 600 and 1000 μg/kg SC,clinical efficacy was seen in most patients
same,Raji Cell Viability (% control),Raji-luc; BCMAxCD3 0.00064 nM,94 ± 3.7 % control
same,Raji Cell Viability (% control),Raji-luc; BCMAxCD3 0.0032 nM,107 ± 4.5 % control
same,Raji Cell Viability (% control),Raji-luc; BCMAxCD3 0.016 nM,105.8 ± 10.2 % control
same,Raji Cell Viability (% control),Raji-luc; BCMAxCD3 0.08 nM,89.3 ± 5.7 % control
same,Raji Cell Viability (% control),Raji-luc; BCMAxCD3 0.4 nM,88.1 ± 18.4 % control
same,Raji Cell Viability (% control),Raji-luc; BCMAxCD3 2 nM,71 ± 9.7 % control
same,Raji Cell Viability (% control),Raji-luc; BCMAxCD3 10 nM,82.1 ± 9.7 % control
same,Raji Cell Viability (% control),Raji-luc; BCMAxCD3 50 nM,80 ± 13.2 % control
